# Patent US20050070565A1, “Chelerythrine, analogs thereof and their use in the treatment of bipolar disorder and other cognitive disorders” (priority 2003, published 2005)
# “Also recorded” adds a separate entry of the source.
# Columns and labels:
# rats [1] = assay: Spatial delayed alternation task in a T maze (working memory); format: in vivo, rat
# Experimental: (§1) The influence of PKC activation on prefrontal cortical function was tested in rats and monkeys performing spatial working memory tasks that are critically dependant upon the integrity of the prefrontal cortex. All procedures were approved by the Yale Institutional Animal Care and Use Committee. Rats were trained on the spatial delayed alternation task in a T maze, or on a control task, spatial discrimination, which has similar motor and motivational demands but depends upon the posterior cortex and not the prefrontal cortex. Performance on the delayed alternation task is dependant upon the length of the delay between trials. The delay was raised as needed to maintain each individual animals performance at approximately 70% correct, allowing room for improvement or impairment in performance following drug administration.
# Following behavioral training, rats were implanted with guide cannulae to allow drug infusions into the prefrontal cortex (stereotaxic coordinates from bregma and skull surface: anterior +3.2 mm, lateral ±0.75 mm, ventral −1.7 mm). The infusion needles projected 2.8 mm below the guide cannula such that the infusion site was −4.5 mm ventral to skull surface. Rats were allowed to recover for one week following surgery. Drug treatments were administered only after the animal achieved stable performance (60-80% correct) for two consecutive days. […] The PMA-induced working memory impairment was blocked by co-administration of chelerythrine, which had no effect on performance when administered alone (FIG. 10A). In contrast, PMA (5 picograms PMA/0.5 μl) had no effect on performance of the control spatial discrimination task (10 sec delays, mean performance after vehicle: 92.0%±11.0%, mean performance after PMA: 88.0%±13.0%, p=0.587, Tdep test).
# (§2) NE α-1 adrenergic receptors are positively coupled to PKC through a Gq-protein linked to the PI intracellular signaling pathway (FIG. 1). Previous studies have shown that infusion of the α-1 adrenergic receptor agonist, phenylephrine, into the prefrontal cortex impairs working memory in both rats (Arnsten et al., 1999; FIGS. 2, 6 and 10B) and monkeys (Mao et al, 1999). Likewise, systemic injections of cirazoline, an α-1 adrenergic receptor agonist that crosses the blood brain barrier, impairs working memory in monkeys (FIGS. 5 and 10C). Thus, PKC was activated indirectly by infusing phenylephrine into the prefrontal cortex in rats (5 min prior to cognitive testing), or by systemic administration of cirazoline in monkeys (intramuscular injections, 30 min prior to cognitive testing). Monkeys had been previously trained on the spatial delayed response task, the task most commonly used to assess prefrontal cortical function in nonhuman primates. The PKC inhibitor, chelerythrine, was administered directly into the prefrontal cortex in rats (5 min prior to cognitive testing), or systemically in monkeys (oral administration, 60 min prior to cognitive testing).
# (§3) The anxiogenic stressor, FG7142, was administered systemically to rats (interperitonial injection) or monkeys (intramuscular injection) 30 min prior to cognitive testing. Chelerythrine was administered directly into the prefrontal cortex in rats (15 min prior to cognitive testing), or systemically in monkeys (oral administration, 60 min prior to cognitive testing). […] This cognitive impairment was blocked by chelerythrine (FIGS. 11A and 11B), consistent with stress-induced activation of PKC.
# (§4) Rats were injected with 0, 0.3, or 3.0 mg/kg chelerythrine s.c. in water approximately 45 minutes before cognitive testing; they receive an injection of the pharmacological stressor, FG7142 (15 mg/kg, i.p.) or vehicle 30 minutes prior to cognitive testing. All drug treatments occur at least one week apart, and the order of treatments is counterbalanced between animals. […] All ratings were performed by experimenters who were very familiar with the normative behavior of the animal but were unaware of the drug treatment conditions.
# rhesus monkeys [2] = assay: Spatial delayed response task (working memory); format: in vivo, rhesus monkey
# Text: as §2, §3
# (§5) Chelerythrine was administered orally to rhesus monkeys at doses of either […] or 0.3 mg/kg 60 min before cognitive testing, 30 minutes prior to stress exposure (FG7142 0.2-1.0 mg/kg, i.m.). In addition to cognitive testing, monkeys are also assessed for changes in sedation, agitation, aggression, motivation, food intake, and both fine and gross motor abilities. Four monkeys were tested.
# rats [3] = assay: Response time per trial (stress-induced freezing) during delayed alternation testing; format: in vivo, rat
# Experimental: FIG. 11 illustrates a summary whereby treatment with chelerythrine reverses the detrimental effects of: A. stress in rats; or B. stress in monkeys. […] In A, the anxiogenic stressor, FG7142 (range: 10 to 20 mg/kg), impaired delayed alternation performance compared to vehicle treatment in rats (vehicle+vehicle vs. FG7142+vehicle: * ANOVA-R, F1,10=25.095, p=0.001). The FG7142-induced cognitive deficit was reversed by infusion of the PKC inhibitor, chelerythrine, into the prefrontal cortex 15 min prior to testing (0.3 μg/0.5 μl; FG7142+vehicle vs. FG7142+chelerythrine: † F1,10=10.170, p=0.010). […] The FG7142-induced cognitive deficit was reversed by pretreatment with the PKC inhibitor, chelerythrine (0.03 mg/kg; FG7142+vehicle vs. FG7142+chelerythrine: † F1,4=21.23, p=0.006).
# For example, stressors such as FG7142 induce freezing behaviors in rodents that effectively lengthen the delays and increase the memory demands of the task (FIG. 11C).
# rats [4] = assay: Spatial discrimination control task; format: in vivo, rat; conditions: 5 picograms PMA/0.5 μl
# Experimental: as §1
# Following behavioral training, rats were implanted with guide cannulae to allow drug infusions into the prefrontal cortex (stereotaxic coordinates from bregma and skull surface: anterior +3.2 mm, lateral ±0.75 mm, ventral −1.7 mm). The infusion needles projected 2.8 mm below the guide cannula such that the infusion site was −4.5 mm ventral to skull surface. Rats were allowed to recover for one week following surgery. Drug treatments were administered only after the animal achieved stable performance (60-80% correct) for two consecutive days. […]
# rats [5] = assay: Behavioral observations for side effects in home cage and during cognitive testing; format: in vivo, rat; conditions: 0.3 or 3.0 mg/kg s.c.
# Experimental: as §4
# rhesus monkeys [6] = assay: Assessment of sedation, agitation, aggression, motivation, food intake and motor abilities; format: in vivo, rhesus monkey; conditions: oral 0.03 or 0.3 mg/kg
# Experimental: as §5
# rats [7] = conditions: cited from earlier work
# [8] = co-infusion into prefrontal cortex, chelerythrine 0.3 μg/0.5 μl
structure (smiles),measurement,setting,value
"CNC(=O)c1cc2c(cn1)[nH]c1ccccc12 [FG7142, reference compound]",delayed alternation performance after stressor vs vehicle,"rats [1]; FG7142 10 to 20 mg/kg, 30 min prior to testing",impaired
same,delayed response performance after stressor vs vehicle,"rhesus monkeys [2]; monkeys, FG7142 0.2 to 2.0 mg/kg injection",significantly impaired
same,average response time for each trial after stressor vs vehicle,rats [3]; FG7142,increased response time
"CCCCCCCCCCCCCC(=O)O[C@@H]1[C@@H](C)[C@@]2(O)[C@@H](C=C(CO)C[C@]3(O)C(=O)C(C)=C[C@@H]23)[C@@H]2C(C)(C)[C@]12OC(C)=O [PMA, phorbol 12-myristate 13-acetate]",delayed alternation performance after direct PKC activation vs vehicle,"rats [1]; PMA infused into prefrontal cortex, 0.05 to 5 pg/0.5 μl, 10 min prior to testing",significantly impaired
same,effect on performance of control spatial discrimination task,rats [4],no effect
same,mean performance on control spatial discrimination task,"rats [4]; 10 sec delays, vehicle 92.0%±11.0%, p=0.587",88.0%±13.0%
"COc1ccc2c(c[n+](C)c3c4cc5c(cc4ccc23)OCO5)c1OC.[Cl-] [chelerythrine, 1,2-dimethoxy-12-methyl[1,3]benzodioxolo[5,6-c]phenanthridinium]",side effects with administration by itself,rats [5],no significant side effects
same,"effect on detrimental effects of stress exposure, lower systemic dose","rats [1]; 0.3 mg/kg s.c., 45 min before testing, FG7142 15 mg/kg i.p., p=0.018, n=4",significantly reversed
same,"effect on cognitive deficits due to stress, higher systemic dose","rats [1]; 3.0 mg/kg s.c., FG7142 15 mg/kg i.p.",did not reverse
same,"average correct, drug on its own","rats [1]; 3.0 mg/kg s.c., no stressor, similar to vehicle",72.5 % correct
same,effect on PMA-induced working memory deficit,rats [1]; [8],reversed; also recorded: blocked
same,effect on phenylephrine-induced working memory deficit,rats [1]; [8],significantly reversed
same,effect on FG7142 (stress)-induced cognitive deficit,"rats [1]; infusion into prefrontal cortex 0.3 μg/0.5 μl, 15 min prior to testing",significantly reversed
same,"effect on stress response (cognitive deficit), higher infused dose",rats [1]; infusion into prefrontal cortex 3.0 μg/0.51 μl,did not reverse
same,performance when higher dose infused by itself,"rats [1]; infusion into prefrontal cortex 3.0 μg/0.51 μl, no stress",no effect
same,"delayed alternation performance, drug on its own","rats [1]; infusion into prefrontal cortex, 0.3 μg/0.5 μl, no challenge",no effect
same,effect on FG7142-induced cognitive deficit,"rhesus monkeys [2]; monkeys, chelerythrine pretreatment 0.03 mg/kg",reversed
same,effect on cirazoline-induced working memory deficit,"rhesus monkeys [2]; monkeys, chelerythrine pretreatment 0.03 mg/kg oral, 60 min prior to testing",reversed
same,"delayed response (cognitive) performance, drug on its own","rhesus monkeys [2]; monkeys, oral chelerythrine, no challenge",no effect
same,share of monkeys with complete protection at the lower dose,"rhesus monkeys [2]; rhesus monkeys, 0.03 mg/kg oral, other half required 0.3 mg/kg for full reversal",Half of the monkeys showed complete protection
same,effect on detrimental effects of stress on prefrontal cortical function,"rhesus monkeys [2]; rhesus monkeys, oral 0.03/kg or 0.3 mg/kg 60 min before testing, FG7142 0.2-1.0 mg/kg i.m., n=4, p<0.05",significantly reversed
same,effect on FG7142-induced increased response time,rats [3]; chelerythrine infused into prefrontal cortex,not blocked; also recorded: no effect on response time
same,tolerability / side effects,rhesus monkeys [6],well-tolerated with no side effects
"c1ccc(C2CC2)c(OCC2=NCCN2)c1 [cirazoline, reference compound]",delayed response performance after α-1 agonist vs vehicle,"rhesus monkeys [2]; monkeys, cirazoline 0.001 to 10 μg/kg intramuscular, 30 min prior to testing",significantly impaired
"CNC[C@H](O)c1cccc(O)c1 [phenylephrine, reference compound]",delayed alternation performance after α-1 agonist infusion vs vehicle,"rats [1]; phenylephrine 0.1 μg/0.5 μl into prefrontal cortex, 5 min prior to testing",significantly impaired
COc1ccccc1N1CCN(CCCNc2cc(=O)n(C)c(=O)n2C)CC1 [urapidil],effect on phenylephrine-induced working memory impairment (FIG. 2),rats [7]; co-infusion of urapidil into prefrontal cortex,prevented
same,effect on stress-induced working memory impairment (FIG. 3),rats [7]; urapidil infused into prefrontal cortex,prevented
